Laboratory results: publication PMC2682793, “Enhanced muscarinic M1 receptor gene expression in the corpus striatum of streptozotocin-induced diabetic rats” (Journal of Biomedical Science, 2009)

Target: T1, total muscarinic receptor
T1 construct: gene Chrm1
Assay type: biochemical, Rattus norvegicus
Conditions: control rats; striatal membranes; 1 nM [3H]QNB; Tris-HCl-EDTA pH 7.4; 22°C; one-site fit; unit not printed (concentrations in M); logarithmic value; EC50 stated to be same as IC50
Source text: [3H]QNB displacement, filtration on total muscarinic receptor

`CN1[C@@H]2CC[C@H]1CC(OC(=O)C(CO)c1ccccc1)C2` (stereo partly shown) [atropine] was tested, and the “Log (EC50)” value was -7.076.
